Source: patent publication US20100216795A1, “TNIK INHIBITOR AND THE USE” (priority 2008, published 2010)

Biological target: T1, human TNIK (N-terminal segment, TNIK_N) (Homo sapiens, UniProt Q9UKE5)
T1 construct: made in house; host or cells: Sf21 insect cells (baculovirus)
Experiment: TNIK kinase assay (mobility shift)
Assay type: biochemical
Conditions: 25 μM ATP, 1 h at room temperature
Description: A cDNA encoding the N-terminal segment (TNIK_N, residues 1-314) containing the kinase domain of human TNIK (NM_015028.1) was amplified from cDNA mixture synthesized from human tissue (Biochain) by PCR using the following primers: 5′-[…]-3′ ([SEQ ID NO:1]: forward primer, the underlined nucleotides indicates the location of a EheI site); 5′-[…]-3′ ([SEQ ID NO:2]: reverse primer, the underlined nucleotides indicates the location of a NotI site). The cDNA was subcloned into baculovirus transfer vector pFastBac_GSTb that includes protease cleavage site and glutathione S-transferase purification tag (GST-tag). The plasmid was purified and the insertion of the pFastBac_GSTb-TNIK_N was confirmed by DNA sequencing. Then E. coli DH10Bac competent cells were transformed with the plasmid to prepare the recombinant bacmid according to the instructions for the Bac-to-Bac™ baculovirus expression systems (Invitrogen). The Sf9 cells were transfected with the recombinant bacmid containing pFastBac_GSTb-TNIK_N using Cellfectin Reagent (Invitrogen) in SF-900II serum free media (Invitrogen). The viral supernatant was collected from the medium 72 h after transfection. The virus was amplified three times by infecting actively growing Sf9 or Sf21 cells in Grace's insect media (Invitrogen) supplemented with 10% FCS and an antibiotic-antimycotic reagent (Invitrogen) for 72 h at 27° C. in T-flask or roller bottles. The titer of amplified TNIK_N virus was estimated at 2.36×10^8 pfu/ml by using BacPAK™ Baculovirus Rapid Titer kit (Clontech).
Log-phase Sf21 cells (2×10^6 cells/ml) in the Grace's insect media were infected with the recombinant baculovirus at MOI of 3.0 and incubated in roller bottles (250 ml media per bottle) for 72 h at 27° C., after which, the cells were collected by centrifugation, and the cell pellet washed with cold PBS and kept at −80° C. until purification. The following purification procedures were carried out at 4° C. The frozen cells were thawed on ice and lysed in lysis buffer (50 mM Tris-HCl, pH 7.5, 150 mM NaCl, 1% Nonidet P-40, 5 mM DTT, 0.5 mM EDTA, 0.5 mM EGTA) supplemented with 1 mM phenylmethansulfonylfluoride, 2 μg/ml leupeptin, 2 μg/ml aprotinin, 1 mM NaF, 100 μM sodium orthovanadate, and 1 μM cantharidin by sonication. The suspended lysate was cleared by centrifugation at 9000 g for 20 min and the supernatant was incubated for 1 h with glutathione Sepharose beads (GE Healthcare). The beads were suspended in buffer-H (50 mM Tris-HCl, pH 7.5, 1 M NaCl, 1 mM DTT, 0.5 mM EDTA, 0.5 mM EGTA and 0.05% Brij35) and washed with buffer-H followed by buffer-L (50 mM Tris-HCl, pH 7.5, 150 mM NaCl, 1 mM DTT, 0.5 mM EDTA, 0.5 mM EGTA, 0.05% Brij35) in an Econo-pack column (BIO-RAD). The bound TNIK_N was eluted with elution buffer (50 mM Tris-HCl, pH 8.0, 150 mM NaCl, 1 mM DTT, 10% glycerol, 0.5 mM EDTA, 0.5 mM EGTA and 5 mM reduced glutathione). The eluted fractions were collected and determined the protein concentration by Bradford reagent (BIO-RAD). The TNIK_N fractions were pooled and desalted using 10DG column (BIORAD) equilibrated with the storage buffer (50 mM Tris-HCl, pH 7.5, 150 mM NaCl, 1 mM DTT, 10% glycerol, 0.05% Brij35). The purified TNIK_N was characterized by electrophoresis using 4-20% polyacrylamide gels and matrix-assisted laser desorption/ionization reflection time-of-flight (MALDI-TOF) mass spectrometry on a Voyager-DE RP MALDI/TOF (Applied Biosystems). TNIK_N was confirmed by the molecular weight and MASCOT Peptide Mass Fingerprint.
The kinase assays were conducted in a 20 μl volume using 384-well plates (Greiner). The reaction mixture consists of compound or vehicle (1% DMSO), 0.08 ng/μl TNIK_N, 1 μM FITC-labeled substrate peptides, FITC-x-Lys-Tyr-Lys-Thr-Leu-Arg-Gln ([SEQ ID NO.3], x: ε-aminocaproic acid), 20 mM Hepes, pH 7.5, 0.01% Triton X-100, 5 mM MgCl2, 25 μM ATP and 2 mM DTT. As blank, TNIK_N was excluded from the reaction mixture of vehicle (1% DMSO). […]

T1 sequence (Q9UKE5 1-314): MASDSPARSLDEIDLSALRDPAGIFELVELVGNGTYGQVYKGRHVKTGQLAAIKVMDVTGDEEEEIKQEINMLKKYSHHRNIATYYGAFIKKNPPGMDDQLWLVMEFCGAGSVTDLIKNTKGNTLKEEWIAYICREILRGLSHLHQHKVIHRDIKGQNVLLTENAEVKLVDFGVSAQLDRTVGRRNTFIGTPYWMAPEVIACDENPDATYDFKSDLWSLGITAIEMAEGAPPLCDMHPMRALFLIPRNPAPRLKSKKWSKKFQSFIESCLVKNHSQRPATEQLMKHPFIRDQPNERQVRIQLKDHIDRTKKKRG

Row | SMILES | IC50
1 | CC(=O)Nc1ccc(C(=O)Nc2sc(Nc3ccccc3C)nc2C(N)=O)cc1 [Compound A9, 2-(o-toluidino)-5-(4-acetamidobenzamido) thiazole-4-carboxamide] | 18 nM
2 | CC(=O)Nc1ccc(C(=O)Nc2sc(Nc3ccc(N)cc3)nc2C(N)=O)cc1 [Compound A19, 5-(4-acetamidobenzamido)-2-(4-aminophenyl-amino)thiazole-4-carboxamide] | 24 nM
3 | CC(=O)Nc1ccc(C(=O)Nc2sc(Nc3cccnc3)nc2C(N)=O)cc1 [Compound A20, 5-(4-acetamidobenzamido)-2-(pyridin-3-ylamino) thiazole-4-carboxamide] | 9 nM
4 | COc1ccc(Nc2nc(C(N)=O)c(NC(=O)c3ccc(NCCN4CCOCC4)cc3)s2)cc1 [Compound A27, 2-(4-methoxyphenylamino)-5-[4-(2-morpholino-ethyl-amino)benzamido]thiazole-4-carboxamide] | 9 nM
5 | COc1ccc(Nc2nc(C(N)=O)c(NC(=O)c3ccc(NCCN4CCCC4)cc3)s2)cc1 [Compound A29, 2-(4-methoxyphenylamino)-5-{4-[2-(pyrrolidin-1-yl)ethylamino]benzamido}thiazole-4-carboxamide] | 8 nM
6 | COc1ccc(Nc2nc(C(N)=O)c(NC(=O)c3ccc(NC(=O)CN4CCN(C)CC4)cc3)s2)cc1 [Compound A42, 2-(4-methoxyphenylamino)-5-{4-[2-(4-methyl-piperazin-1-yl)acetamido]benzamido}thiazole-4-carboxamide] | 18 nM
7 | COc1ccc(Nc2nc(C(N)=O)c(NC(=O)c3ccc(N4CCC(CO)CC4)cc3)s2)cc1 [Compound A43, 5-{4-[4-(hydroxymethyl)piperidin-1-yl]benzamido}-2-(4-methoxyphenylamino)thiazole-4-carboxamide] | 13 nM
8 | COc1ccc(Nc2nc(C(N)=O)c(NC(=O)c3ccc(OCCN4CCCC4)cc3)s2)cc1 [Compound A45, 2-(4-methoxyphenylamino)-5-{4-[2-(pyrrolidin-1-yl)ethoxy]benzamido}thiazole-4-carboxamide] | 22 nM
9 | COc1ccc(Nc2nc(C(N)=O)c(NC(=O)c3ccc(NCCN4CCCCC4)cc3)s2)cc1 [Compound A49, 2-(4-methoxyphenylamino)-5-{4-[2-(piperidin-1-yl)ethylamino]benzamido}thiazole-4-carboxamide] | 5 nM
10 | COc1ccc(Nc2nc(C(N)=O)c(NC(=O)c3ccc(NCCc4ccncc4)cc3)s2)cc1 [Compound A55, 2-(4-methoxyphenylamino)-5-{4-[2-(pyridin-4-yl)ethylamino]benzamido}thiazole-4-carboxamide] | 10 nM
11 | COc1ccc(C(=O)Nc2sc(Nc3cncnc3)nc2C(N)=O)cc1 [Compound A69, 5-(4-methoxybenzamido)-2-(pyrimidin-5-ylamino)thiazole-4-carboxamide] | 7 nM
12 | NC(=O)c1nc(Nc2cccnc2)sc1NC(=O)c1ccc(NCCO)cc1 [Compound A72, 5-[4-(2-hydroxyethylamino)benzamido]-2-(pyridin-3-ylamino)thiazole-4-carboxamide] | 4 nM
13 | CN1CCN(c2ccc(C(=O)Nc3sc(Nc4cccnc4)nc3C(N)=O)cc2)CC1 [Compound A74, 5-[4-(4-methylpiperazin-1-yl)benzamido]-2-(pyridin-3-ylamino)thiazole-4-carboxamide] | 7 nM
14 | NC(=O)c1nc(Nc2ccncc2)sc1NC(=O)c1ccc(F)cc1 [Compound A76, 5-(4-fluorobenzamido)-2-(pyridin-4-ylamino) thiazole-4-carboxamide] | 7 nM
15 | NC(=O)c1nc(Nc2cccnc2)sc1NC(=O)c1ccc(NCCc2ccncc2)cc1 [Compound A84, 2-(pyridin-3-ylamino)-5-{4-[2-(pyridin-4-yl)ethyl-amino]benzamido}thiazole-4-carboxamide] | 2 nM

Continued, values first:

Row | IC50 | SMILES
16 | 14 nM | COc1ccc(Nc2nc(C(N)=O)c(NC(=O)c3ccc(NC(C)=O)cc3)s2)cc1 [Compound A11, 5-(4-acetamidobenzamido)-2-(4-methoxyphenyl-amino)thiazole-4-carboxamide]
17 | 15 nM | COc1ccc(Nc2nc(C(N)=O)c(NC(=O)c3ccc(N4CCN(C)CC4)cc3)s2)cc1 [Compound A22, 2-(4-methoxyphenylamino)-5-[4-(4-methyl-piperazin-1-yl)benzamido]thiazole-4-carboxamide]
18 | 8 nM | COc1ccc(Nc2nc(C(N)=O)c(NC(=O)c3ccc(NCCO)cc3)s2)cc1 [Compound A23, 5-[4-(2-hydroxyethylamino)benzamido]-2-(4-methoxyphenylamino)thiazole-4-carboxamide]
19 | 11 nM | COc1ccc(Nc2nc(C(N)=O)c(NC(=O)c3ccc(NCCN(C)C)cc3)s2)cc1 [Compound A24, 5-{4-[2-(dimethylamino)ethylamino]benzamido}-2-(4-methoxyphenylamino)thiazole-4-carboxamide]
20 | 10 nM | COCCNc1ccc(C(=O)Nc2sc(Nc3ccc(OC)cc3)nc2C(N)=O)cc1 [Compound A31, 5-[4-(2-methoxyethylamino)benzamido]-2-(4-methoxyphenylamino)thiazole-4-carboxamide]
21 | 9 nM | COc1ccc(Nc2nc(C(N)=O)c(NC(=O)c3ccc(NC(=O)CO)cc3)s2)cc1 [Compound A37, 5-[4-(2-hydroxyacetamido)benzamido]-2-(4-methoxyphenylamino)thiazole-4-carboxamide]
22 | 11 nM | COc1ccc(Nc2nc(C(N)=O)c(NC(=O)c3ccc(CN4CCN(C)CC4)cc3)s2)cc1 [Compound A44]
23 | 16 nM | COc1ccc(Nc2nc(C(N)=O)c(NC(=O)c3ccc(OC)cc3)s2)cc1 [Compound A46, 5-(4-methoxybenzamido)-2-(4-methoxyphenyl-amino)thiazole-4-carboxamide]
24 | 3 nM | COc1ccc(C(=O)Nc2sc(Nc3ccncc3)nc2C(N)=O)cc1 [Compound A47, 5-(4-methoxybenzamido)-2-(pyridin-4-ylamino) thiazole-4-carboxamide]
25 | 6 nM | COc1ccc(Nc2nc(C(N)=O)c(NC(=O)c3ccc(N(S(C)(=O)=O)S(C)(=O)=O)cc3)s2)cc1 [Compound A48, 2-(4-methoxyphenylamino)-5-{4-[N-(methyl-sulfonyl)methylsulfonamido]benzamido} thiazole-4-carboxamide]
26 | 3 nM | COc1ccc(C(=O)Nc2sc(Nc3ccnc(F)c3)nc2C(N)=O)cc1 [Compound A92, 2-(2-fluoropyridin-4-ylamino)-5-(4-methoxy-benzamido)thiazole-4-carboxamide]
27 | 6 nM | COc1ccc(C(=O)Nc2sc(Nc3ccc(CO)cc3)nc2C(N)=O)cc1 [Compound A102, 2-[4-(hydroxymethyl)phenylamino]-5-(4-methoxy-benzamido)thiazole-4-carboxamide]
28 | 10 nM | COc1ccc(Nc2nc(C(N)=O)c(NC(=O)c3ccc(N)c(N)c3)s2)cc1 [Compound A103, 5-(3,4-diaminobenzamido)-2-(4-methoxyphenyl-amino)thiazole-4-carboxamide]
